{"source": "patent US10782295B2", "about": "“Cysteine-reactive ligand discovery in proteomes” (THE SCRIPPS RESEARCH INSTITUTE, priority 2013, dated 2020)", "key": {"[1]": {"test_system": "cysteines in ZAK, EEF2, RTN4 and FN3KRP", "experiment": "in situ competitive isoTOP-ABPP in MDA-MB-231 cells", "assay_type": "cell-based, human", "details": "MDA-MB-231 cells treated with 50 or 100 μM HNE", "description": "By combining the R values at all 5 HNE concentrations, we could extrapolate IC50 values for […] of IA probe-labeling for ˜700 of the 1100 cysteines (FIG. 3a).\nAfter MDA-MB-231 cells were grown to 100% confluency, the media was removed and replaced with fresh serum-free media containing 100 μM HNE (20 μL of […] stock in 10 mL media). A control flask of cells was treated with 10 mL of serum-free media containing 20 uL of ethanol in parallel. The cells were incubated at 37° C. for 1 hour and harvested as detailed above to prepare HNE-treated and control proteomes, respectively. […]\nIA-probe labeled peptides were identified by SEQUEST2 and DTASelect3, and the quantification of heavy/light ratios (isoTOP-ABPP ratios, R) was performed by an in-house software (CIMAGE) as previously described. The software was advanced to be able to detect and quantify cases where near complete […] blockade of IA-probe labeling was achieved (e.g., very small or no light peak) and assign an empirical ratio cut-off of 15 to each of such cases. […] In the case of probe-modified peptides that were sequenced in one, but not the other runs, a featured algorithm of CIMAGE was utilized to identify the corresponding peak pairs in the runs without the SEQUEST identification and obtain quantification as previously described. […]"}, "[2]": {"biological_target": "ZAK (Homo sapiens, UniProt Q9NYL2)", "sequence (Q9NYL2 1-455 isoform Q9NYL2-2)": "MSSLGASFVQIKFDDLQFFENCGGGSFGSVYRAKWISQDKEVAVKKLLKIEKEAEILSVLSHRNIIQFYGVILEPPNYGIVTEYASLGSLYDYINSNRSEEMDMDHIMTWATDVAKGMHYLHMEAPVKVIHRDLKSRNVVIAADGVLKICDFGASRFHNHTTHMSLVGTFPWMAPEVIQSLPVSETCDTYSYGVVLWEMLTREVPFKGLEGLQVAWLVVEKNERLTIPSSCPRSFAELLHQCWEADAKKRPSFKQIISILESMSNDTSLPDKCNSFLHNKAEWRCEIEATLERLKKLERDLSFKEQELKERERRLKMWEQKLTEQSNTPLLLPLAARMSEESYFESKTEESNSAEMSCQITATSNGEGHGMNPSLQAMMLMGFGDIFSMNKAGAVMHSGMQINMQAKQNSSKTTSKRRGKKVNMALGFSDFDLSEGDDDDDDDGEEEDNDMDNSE", "experiment": "SILAC-ABPP with acylphosphate-ATP probe", "assay_type": "binding", "parameters": "Full-length cDNA encoding human ZAK-13 (BC001401); expressed in transfected cells", "details": "100 μM, 30 min; ZAK-transfected HEK293T proteome", "excerpt": "The gel signals for IA-labeling of WT-ZAK were blocked by pretreatment with HNE over a concentration range that closely matched the HNE-sensitivity profile observed for C22 in competitive isoTOP-ABPP experiments (FIG. 4b, compare to FIG. 3a). […] Considering further that C22 is predicted to reside adjacent to the ATP-binding loop of ZAK, we postulated that the HNE-induced loss of kinase activity might be due to blockade of ATP-binding.\nHEK-293T cells with stable expression of wild-type ZAK were passaged six times in DMEM medium minus 1-lysine and 1-arginine (Thermo) supplemented 10% dialyzed FBS (Gemini), 1% PSQ (1% vol/vol 10,000 units penicillin, 10 mg streptomycin, 29.2 mg lglutamate solution) and 100 μg/mL [^13C6, ^15N4] 1-arginineHCl and [^13C6,^15N2] 1-lysineHCl (heavy) or 1-arginineHCl and 1-lysineHCl (light) (Sigma-Aldrich). […] The trypsin digested samples were analysed by LC-MS/MS and enriched kinase peptides were identified by SEQUEST and DTASelect. The amounts of probe-labeled kinases with and without HNE treatment were quantified using the CIMAGE module that was developed for quantitative SILAC-ABPP chemoproteomic profiling. As internal controls, light and heavy proteomes were trypsin digested without probe labeling and streptavidin enrichment, and analysed by LC-MS/MS to quantify the basic level of each kinase between light and heavy samples. […]"}}}
{"smiles": "CCCCCC(O)/C=C/C=O", "note": "(centres unmarked) [4-HNE, 4-Hydroxynonenal]", "values": [{"measurement": "inhibition of the most HNE-sensitive cysteines in situ", "setting": "[1]", "result": "strongly inhibited"}, {"measurement": "acylphosphate-ATP probe-labeling of ZAK", "setting": "[2]", "result": "profoundly reduced"}]}
